Article PMC8308736, “Functional Characterization of the Oxantel-Sensitive Acetylcholine Receptor from Trichuris muris” (Pharmaceuticals, 2021)
Read-outs that look alike come from different tables or passages of the source.

Key:
Tmu-ACR-16-like = target: T1, Tmu-ACR-16-like (Trichuris muris, UniProt A0A5S6R3I6); assay: two-electrode voltage-clamp in Xenopus oocytes co-injected with Xla-ric-3; type: cell-based
T1 construct: full-length subunit (464 amino acids; GenBank MZ322663), homomeric receptor in Xenopus laevis oocytes
T1 sequence (A0A5S6R3I6 entry or part of it): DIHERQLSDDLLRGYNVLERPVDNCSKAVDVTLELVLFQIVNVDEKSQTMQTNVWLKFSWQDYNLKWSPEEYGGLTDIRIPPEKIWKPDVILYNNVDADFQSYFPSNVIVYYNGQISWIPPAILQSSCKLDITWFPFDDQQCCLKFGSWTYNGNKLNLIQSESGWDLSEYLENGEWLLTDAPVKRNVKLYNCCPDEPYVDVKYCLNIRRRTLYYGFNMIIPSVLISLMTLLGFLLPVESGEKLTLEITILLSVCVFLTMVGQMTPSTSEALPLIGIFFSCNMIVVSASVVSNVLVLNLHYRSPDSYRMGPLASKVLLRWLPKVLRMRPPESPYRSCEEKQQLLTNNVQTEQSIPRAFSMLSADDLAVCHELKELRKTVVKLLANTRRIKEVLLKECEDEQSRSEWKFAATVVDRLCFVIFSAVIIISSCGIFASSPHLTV

Tsu-ACR-16-like = target: T2, Tsu-ACR-16-like (Trichuris suis, UniProt A0A890W0I7); assay: as above; type: cell-based
T2 construct: ACR-16-like subunit (GenBank MT386096), homomeric receptor in Xenopus laevis oocytes
T2 sequence (A0A890W0I7 22-461): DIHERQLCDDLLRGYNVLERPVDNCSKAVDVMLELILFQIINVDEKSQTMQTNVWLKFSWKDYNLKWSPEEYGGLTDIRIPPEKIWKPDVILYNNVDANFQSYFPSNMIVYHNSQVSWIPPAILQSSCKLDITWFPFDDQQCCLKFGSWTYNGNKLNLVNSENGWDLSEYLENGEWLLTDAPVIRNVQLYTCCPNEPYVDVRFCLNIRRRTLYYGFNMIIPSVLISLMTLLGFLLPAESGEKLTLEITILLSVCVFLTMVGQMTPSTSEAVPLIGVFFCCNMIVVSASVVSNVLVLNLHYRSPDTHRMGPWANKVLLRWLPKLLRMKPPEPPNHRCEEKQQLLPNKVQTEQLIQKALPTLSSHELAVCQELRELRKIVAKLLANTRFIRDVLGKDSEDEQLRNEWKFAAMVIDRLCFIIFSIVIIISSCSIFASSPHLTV

Row | Compound | EC50 (Tmu-ACR-16-like; read-out: EC50) [µM] | EC50 (Tsu-ACR-16-like) [µM] | EC50 (Tmu-ACR-16-like) [µM]
1 | CC(=O)OCC[N+](C)(C)C [acetylcholine] | 31.1 ± 0.3 |  | 
2 | Clc1ccc(C2CC3CCC2N3)cn1 (stereo not shown) [epibatidine] |  | 1.9 ± 0.5 | 1.7 ± 0.4
3 | CN1CCCN=C1/C=C/c1cccc(O)c1 [oxantel] | 32.7 ± 0.3 |  | 
